Laboratory results from ChEMBL document CHEMBL3822396 (J Med Chem, 2016).
pIC50: −log10 of the molar value. Activity calls are given as the source filed them. The calls are words filed in the database; no cut-off is given here.

What was measured:
[1] = Cmax in Sprague-Dawley rat at 2 mg/kg, po administered through cassette dosing as by LC-MS/MS analysis; format: ADME, organism-based; set-up: dose 2 mg/kg, route oral; settings: in vivo
Intestinal mucosa = assay: Inhibition of TNFalpha production in intestinal mucosa derived from ulcerative colitis patient measured after 24 hrs by sandwich ELISA; format: functional, tissue-based; settings: Homo sapiens
[2] = molecular target: T1, Nucleotide-binding oligomerization domain-containing protein 1 (Homo sapiens) (UniProt Q9Y239); assay: Activation of NOD1 in human monocytes assessed as inhibition of ieDAP-stimulated IL8 production preincubated for 30 mins prior to ieDAP stimulation at 1 uM measured after 6 hrs by immunoassay; format: cell-based
T1 sequence (whole entry): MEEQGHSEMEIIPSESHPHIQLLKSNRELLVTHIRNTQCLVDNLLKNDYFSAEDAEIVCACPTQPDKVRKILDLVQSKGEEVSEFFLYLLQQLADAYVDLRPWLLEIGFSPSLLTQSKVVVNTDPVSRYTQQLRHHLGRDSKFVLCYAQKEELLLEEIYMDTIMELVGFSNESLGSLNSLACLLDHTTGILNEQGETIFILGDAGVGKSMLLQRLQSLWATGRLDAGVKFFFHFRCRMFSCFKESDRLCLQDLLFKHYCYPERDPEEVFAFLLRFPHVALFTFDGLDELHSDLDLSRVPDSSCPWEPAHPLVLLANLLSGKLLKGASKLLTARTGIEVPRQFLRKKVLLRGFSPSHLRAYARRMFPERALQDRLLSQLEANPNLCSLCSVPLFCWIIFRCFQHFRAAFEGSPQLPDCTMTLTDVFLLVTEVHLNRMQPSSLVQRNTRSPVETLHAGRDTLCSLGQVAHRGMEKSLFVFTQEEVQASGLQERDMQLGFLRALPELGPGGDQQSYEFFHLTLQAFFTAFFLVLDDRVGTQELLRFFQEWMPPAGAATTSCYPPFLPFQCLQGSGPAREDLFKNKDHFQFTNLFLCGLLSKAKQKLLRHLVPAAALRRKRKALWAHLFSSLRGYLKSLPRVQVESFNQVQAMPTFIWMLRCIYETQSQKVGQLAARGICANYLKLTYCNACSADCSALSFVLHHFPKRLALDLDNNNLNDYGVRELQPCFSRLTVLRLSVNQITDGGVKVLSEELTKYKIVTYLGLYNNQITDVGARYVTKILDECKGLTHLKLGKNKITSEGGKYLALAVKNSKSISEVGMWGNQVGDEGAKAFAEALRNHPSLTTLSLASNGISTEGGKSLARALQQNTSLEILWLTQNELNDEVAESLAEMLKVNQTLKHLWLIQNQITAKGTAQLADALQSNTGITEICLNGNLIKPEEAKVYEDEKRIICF

[3] = Oral bioavailability in C57BL/6 mouse at 2 mg/kg by LC-MS/MS analysis; format: ADME, organism-based; settings: in vivo
[4] = molecular target: Receptor-interacting serine/threonine-protein kinase 2 (Rattus norvegicus, UniProt G3V783); assay: Inhibition of rat RIPK2 preincubated for 10 mins followed by addition of fluorescent-labeled 2-Methyl-5-(2-propen-l-yloxy)aniline measured after 10 mins by fluorescence polarization assay
Chain of Receptor-interacting serine/threonine-protein kinase 2 (G3V783 whole entry): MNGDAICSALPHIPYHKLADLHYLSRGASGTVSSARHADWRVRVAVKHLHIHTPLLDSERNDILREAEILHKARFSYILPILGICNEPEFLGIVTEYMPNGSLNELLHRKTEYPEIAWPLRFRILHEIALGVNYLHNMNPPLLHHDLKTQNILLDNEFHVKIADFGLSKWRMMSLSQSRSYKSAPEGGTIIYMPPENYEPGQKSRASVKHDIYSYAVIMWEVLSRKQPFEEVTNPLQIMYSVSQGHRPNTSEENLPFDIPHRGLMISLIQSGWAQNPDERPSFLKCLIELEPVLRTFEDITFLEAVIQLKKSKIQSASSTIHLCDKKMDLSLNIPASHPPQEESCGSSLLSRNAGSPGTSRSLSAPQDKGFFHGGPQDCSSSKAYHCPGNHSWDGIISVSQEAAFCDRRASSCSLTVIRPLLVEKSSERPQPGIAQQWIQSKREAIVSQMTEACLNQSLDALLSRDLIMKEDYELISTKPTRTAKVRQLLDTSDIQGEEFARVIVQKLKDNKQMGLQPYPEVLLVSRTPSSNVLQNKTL

[5] = molecular target: T2, Toll-like receptor 7 (Homo sapiens) (UniProt Q9NYK1); assay: Activation of TLR7 receptor in human monocytes assessed as inhibition of gardiquimod-stimulated IL8 production preincubated for 30 mins prior to gardiquimod stimulation at 1 uM measured after 6 hrs by immunoassay; format: cell-based
T2 sequence (whole entry): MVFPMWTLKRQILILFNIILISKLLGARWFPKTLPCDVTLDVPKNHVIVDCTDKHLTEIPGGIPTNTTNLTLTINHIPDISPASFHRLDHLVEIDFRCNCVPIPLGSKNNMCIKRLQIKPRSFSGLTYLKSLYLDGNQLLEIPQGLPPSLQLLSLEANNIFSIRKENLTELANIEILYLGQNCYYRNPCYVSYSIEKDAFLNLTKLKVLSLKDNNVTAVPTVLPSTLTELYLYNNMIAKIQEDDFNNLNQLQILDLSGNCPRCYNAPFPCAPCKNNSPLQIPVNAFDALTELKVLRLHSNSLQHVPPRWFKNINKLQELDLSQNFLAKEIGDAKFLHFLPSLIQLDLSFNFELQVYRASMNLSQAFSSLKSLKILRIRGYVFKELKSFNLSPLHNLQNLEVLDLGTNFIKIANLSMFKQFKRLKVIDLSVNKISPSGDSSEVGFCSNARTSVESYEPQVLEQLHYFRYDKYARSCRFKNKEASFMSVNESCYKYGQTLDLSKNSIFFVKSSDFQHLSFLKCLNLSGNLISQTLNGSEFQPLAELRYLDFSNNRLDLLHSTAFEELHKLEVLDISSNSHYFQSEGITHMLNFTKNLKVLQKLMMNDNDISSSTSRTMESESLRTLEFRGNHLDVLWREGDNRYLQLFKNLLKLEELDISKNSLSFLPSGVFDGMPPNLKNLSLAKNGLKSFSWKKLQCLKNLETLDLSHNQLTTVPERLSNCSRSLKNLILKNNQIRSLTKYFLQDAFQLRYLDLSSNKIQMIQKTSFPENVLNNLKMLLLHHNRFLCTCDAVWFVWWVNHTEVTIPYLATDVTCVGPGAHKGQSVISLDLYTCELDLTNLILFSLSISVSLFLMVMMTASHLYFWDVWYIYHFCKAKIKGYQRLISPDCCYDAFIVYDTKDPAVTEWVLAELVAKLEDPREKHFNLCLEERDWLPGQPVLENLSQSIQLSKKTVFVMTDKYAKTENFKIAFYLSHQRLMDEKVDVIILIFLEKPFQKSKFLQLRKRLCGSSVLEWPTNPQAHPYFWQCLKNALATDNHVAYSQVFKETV

[6] = Half life in Sprague-Dawley rat at 2 mg/kg, po and 1 mg/kg, iv by LC-MS/MS analysis; format: ADME, organism-based; settings: in vivo
Mus musculus [7] = assay: Antiinflammatory activity in C57Bl/6 mouse assessed as inhibition of FK156-induced serum KC level at 0.1 to 100 mg/kg, po for 15 mins prior to FK156-challenge measured after 2.5 hrs by FACS analysis; format: functional, organism-based
[8] = molecular target: Toll-like receptor 4 (Homo sapiens) (UniProt O00206); assay: Activation of TLR4 receptor in human monocytes assessed as inhibition of LPS-stimulated TNF-alpha production preincubated for 30 mins prior to LPS stimulation at 1 uM measured after 6 hrs by immunoassay; format: cell-based
Chain of Toll-like receptor 4 (Homo sapiens) (O00206 whole entry): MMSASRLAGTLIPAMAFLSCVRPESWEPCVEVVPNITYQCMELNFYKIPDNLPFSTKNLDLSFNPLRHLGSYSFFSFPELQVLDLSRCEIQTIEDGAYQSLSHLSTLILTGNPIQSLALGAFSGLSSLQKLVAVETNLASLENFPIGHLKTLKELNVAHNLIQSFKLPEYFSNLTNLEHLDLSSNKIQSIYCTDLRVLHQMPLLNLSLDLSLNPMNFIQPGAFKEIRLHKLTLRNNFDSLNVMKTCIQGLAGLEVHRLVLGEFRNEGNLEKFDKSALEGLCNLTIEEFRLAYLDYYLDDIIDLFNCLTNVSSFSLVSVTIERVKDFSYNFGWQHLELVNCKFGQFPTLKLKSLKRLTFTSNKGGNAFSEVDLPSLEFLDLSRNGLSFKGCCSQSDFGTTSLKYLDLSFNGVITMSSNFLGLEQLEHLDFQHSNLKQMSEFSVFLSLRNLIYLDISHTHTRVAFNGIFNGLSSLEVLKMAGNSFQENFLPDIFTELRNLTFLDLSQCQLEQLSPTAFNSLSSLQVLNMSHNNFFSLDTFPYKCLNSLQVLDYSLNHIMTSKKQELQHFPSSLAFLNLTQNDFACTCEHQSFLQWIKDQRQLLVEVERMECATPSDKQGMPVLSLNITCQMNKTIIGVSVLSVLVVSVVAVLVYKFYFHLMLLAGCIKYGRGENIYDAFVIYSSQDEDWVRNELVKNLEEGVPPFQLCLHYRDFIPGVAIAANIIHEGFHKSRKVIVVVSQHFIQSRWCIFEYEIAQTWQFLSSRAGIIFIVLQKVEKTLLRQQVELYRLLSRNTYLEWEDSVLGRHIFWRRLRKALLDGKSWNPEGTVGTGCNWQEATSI

Mus musculus [9] = assay: Antiinflammatory activity in Balb/c mouse model of L18-MDP-induced inflammatory peritonitis assessed as inhibition of serum KC level into peritoneal cavity administered orally for 15 mins prior to L18-MDP-challenge measured after 4 hrs; format: functional, organism-based

## CC(C)(C)S(=O)(=O)c1ccc2nccc(Nc3n[nH]c4ccc(F)cc34)c2c1
[1]
  Cmax: 260 ng/mL
Intestinal mucosa
  inhibition: Dose-dependent effect
[2]
  inhibition: Active
[3]
  bioavailability: 34%
[4]
  pIC50: 8.70
[5]
  inhibition: Active
[6]
  half-life: 3.1 h
Mus musculus [7]
  inhibition: Active
[8]
  inhibition: Active
Mus musculus [9]
  Activity: Dose-dependent effect
